From patent US20090228996A1, “Means and Methods for influencing Interactions Between Dc-Sign and Dc-Sign Ligands” (priority 2006, published 2009)

Tests used:
[1] = target: T1, DC-SIGN on iDCs (Homo sapiens, UniProt Q9NNX6); experiment: gp120 bead adhesion assay, immature DCs; type: cell-based; conditions: for binding of gp120 beads to iDC: cells pre-incubated 30 min, human milk 1/20, vs control
T1 construct: endogenous in cells
T1 sequence (Q9NNX6 1-404): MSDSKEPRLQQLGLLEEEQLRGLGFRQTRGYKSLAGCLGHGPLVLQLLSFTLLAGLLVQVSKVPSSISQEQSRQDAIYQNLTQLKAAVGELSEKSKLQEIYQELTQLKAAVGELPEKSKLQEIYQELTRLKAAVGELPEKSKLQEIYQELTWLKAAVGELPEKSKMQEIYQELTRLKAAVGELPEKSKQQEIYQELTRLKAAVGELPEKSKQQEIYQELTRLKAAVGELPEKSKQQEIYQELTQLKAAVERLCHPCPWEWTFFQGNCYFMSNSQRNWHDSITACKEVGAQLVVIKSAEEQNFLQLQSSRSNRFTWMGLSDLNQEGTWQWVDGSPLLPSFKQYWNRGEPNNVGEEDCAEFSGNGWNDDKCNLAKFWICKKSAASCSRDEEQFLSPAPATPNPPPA
Experimental: (§1) gp120 bead adhesion assay. Beads were prepared as previously described (Geijtenbeek et al, 2000 a), in short, streptavidin was covalently coupled to Carboxylate-modified TransFluoSpheres (488/645 nm, 1.0 μm; molecular probes). The steptavidin-beads were incubated with biotinylated F(ab′)2 fragment goat-anti-human IgG (6 μg/ml; Jackson Immunoresearch) and subsequently incubated overnight with gp120-Fc chimera. Fifty thousand cells, Raji-DC-SIGN cells, immature DCs or Raji-L-SIGN cells, were pre-incubated with human milk or milk compounds, AZN-D1 (Geijtenbeek et al, 2000 a), AZN-D2 (Halary et al, 2002), EGTA or mannan for 30 minutes at RT. The ligand-coated beads (20 beads/cell) were added to the pre-incubated cells and incubated for 30 minutes at 37° C. after which the cells were washed with TSM containing 0.5% BSA. After washing, the cells were resuspended in 100 μl TSM-BSA buffer and the adhesion was measured by flow cytometry (BD Biosciences).
(§2) gp120 bead adhesion assay. Beads were prepared as previously described (Geijtenbeek et al, 2000 a), in short, streptavidin was covalently coupled to Carboxylate-modified TransFluoSpheres (488/645 nm, 1.0 μm; molecular probes). The steptavidin-beads were incubated with biotinylated F(ab′)2 fragment goat-anti-human IgG (6 μg/ml; Jackson Immunoresearch) and subsequently incubated overnight with the gp120-Fc chimera. Fifty thousand cells, Raji-DC-SIGN cells or iDCs were pre-incubated with human milk, AZN-D1 (Geijtenbeek et al, 2000 a), AZN-D2 (Halary et al, 2002), EGTA or mannan for 30 minutes at RT. The ligand-coated beads (20 beads/cell) were added to the pre-incubated cells and incubated for 30 minutes at 37° C. after which the cells were washed with TSM (20 mM Tris, 150 mM NaCl, 1 mM CaCl2, 2 mM MgCl2) containing 0.5% BSA. After washing, the cells were resuspended in 100 μl TSM-BSA buffer and the adhesion was measured by flow cytometry (BD Biosciences).

[2] = target: T2, DC-SIGN on Raji-DC-SIGN cells (Homo sapiens, UniProt Q9NNX6); experiment: gp120 bead adhesion assay, Raji-DC-SIGN cells; type: cell-based; conditions: for binding of gp120 beads to Raji-DC-SIGN: cells pre-incubated 30 min, human milk 1/20, vs control
T2 construct: expressed in transfected cells; host or cells: Raji cells (Raji-DC-SIGN)
T2 sequence (Q9NNX6 1-404): T1 sequence (Q9NNX6 1-404)
Experimental: as §1, §2

[3] = target: T3, DC-SIGN-Fc (Homo sapiens, UniProt Q9NNX6); experiment: DC-SIGN-Fc binding ELISA
T3 construct: the extracellular portion of DC-SIGN (amino acids 64 to 404)
T3 sequence (Q9NNX6 64-404): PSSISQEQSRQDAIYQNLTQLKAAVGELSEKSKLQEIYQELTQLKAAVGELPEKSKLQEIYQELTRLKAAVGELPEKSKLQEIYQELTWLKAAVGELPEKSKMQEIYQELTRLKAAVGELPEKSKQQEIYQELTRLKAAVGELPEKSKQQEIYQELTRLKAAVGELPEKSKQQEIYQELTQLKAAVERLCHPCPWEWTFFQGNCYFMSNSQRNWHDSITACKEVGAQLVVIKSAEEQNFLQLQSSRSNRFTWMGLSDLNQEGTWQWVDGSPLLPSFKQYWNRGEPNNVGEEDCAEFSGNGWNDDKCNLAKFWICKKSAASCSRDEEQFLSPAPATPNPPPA
Experimental: DC-SIGN-Fc binding ELISA. The DC-SIGN-Fc chimera contained the extracellular portion of DC-SIGN (amino acids 64 to 404) fused at the C-terminus to a human immunoglobulin (Ig) G1 Fc fragment and has been previously described (Geijtenbeek et al, 2002). Human milk or human milk compounds were diluted in 0.2M NaHCO3, coated on ELISA plates (maxisorb plate; Nunc) and incubated overnight at 4° C. or 2 hours at 37° C. This was followed by blocking with TSM containing 1% BSA for 30 minutes at 37° C. before addition of soluble DC-SIGN-Fc (5 μg/ml) for 2 hours at RT, the binding was determined by incubation of a peroxidase labeled anti-IgG1 antibody for 30 minutes at RT. DC-SIGN-Fc binding specificity was determined by pre-incubation of the DC-SIGN-FC with either 50 μg/ml DC-SIGN specific mouse antibody AZN-D1 (Geijtenbeek et al, 2000 a) or 10 mM EGTA. Single-cycle-replication transmission assay. The assay was performed as previously described (Groot et al, 2005). In short mDCs and iDCs were incubated in a 96-well-plate (35−50×10^3 DC/well) with human milk for 30 minutes at 37° C. before addition of the virus (5 ng p24/well), which was incubated for 2 hours at 37° C. The DCs were washed twice with PBS before addition of 50×10^3 LuSIV cells. After 24 hours, LuSIV cells were harvested and resuspended in 50 μl lysis buffer (25 mM Tris-Cl 7.8, 2 mM DTT, 2 mM CDTA, 10% glycerol, 1% Triton X100). The cells were then incubated for 45 minutes at room temperature while shaking, followed by 10 minutes centrifugation at 3200×g. […]
DC-SIGN-Fc binding ELISA. […] This was followed by blocking with TSM containing 1% BSA for 30 minutes at 37° C. before addition of soluble DC-SIGN-Fc (5 μg/ml) for 2 hours at RT, the binding was determined by incubation of a peroxidase labeled anti-IgG1 antibody for 30 minutes at RT. DC-SIGN-Fc binding specificity was determined by pre-incubation of the DC-SIGN-Fc with either 50 μg/ml DC-SIGN specific mouse antibody AZN-D1 (Geijtenbeek et al, 2000 a) or 10 mM EGTA.

[4] = system: DC-SIGN mediated transfer of HIV-1 by Raji-DC-SIGN cells to CD4+ T-lymphocytes; experiment: DC-SIGN mediated HIV-1 transfer assay (Raji-DC-SIGN transfer culture assay); type: cell-based; conditions: Le^x containing compounds, all at 10 μg/ml
Experimental: DC-SIGN mediated HIV-1 transfer assay. The Raji and Raji-DC-SIGN cells were plated at a concentration of 2×10^4 cells/well in a 96 well format. Dilutions of human milk or human milk compounds were made in PBS containing 10% FCS and spiked with 3.7log TCID50/ml of the appropriate virus before addition to the Raji-DC-SIGN cells. As controls PBS containing 10% FCS was spiked with the same TCID50/ml of the corresponding virus before addition to Raji or Raji-DC-SIGN cells. After incubation the culture was washed with PBS before addition of CD4^+ enriched T-lymphocytes at a concentration of 1×10^5 cells/well with p24 determined on day 7. DC-SIGN specific antibody binding after exposure to human milk. […] The cells were washed and resuspended in 100 μl TSM containing 0.5% bovine serum albumin, (BSA Fraction V, Fatty Acid-Free) (Calbiochem) and the adhesion was measured by flow cytometry (BD Biosciences).
DC-SIGN mediated HIV-1 transfer assay. […] After a two hour incubation the culture was washed with PBS before addition of CD4^+ enriched T-lymphocytes at a concentration of 1×10^5 cells/well with p24 values determined on day 7.

[5] = target: T4, DC-SIGN (Homo sapiens, UniProt Q9NNX6); experiment: gp120 bead adhesion assay, cells not given; type: cell-based; conditions: Le^x containing compounds; data not shown
T4 sequence (Q9NNX6 1-404): T1 sequence (Q9NNX6 1-404)
Experimental: as §1

[6] = target: T4, DC-SIGN; conditions: literature; cited from earlier work
[7] = Example 2, protein fraction from milk S3 (C18 column) and DC-SIGN controls
[8] = major milk proteins at 1/20 dilution of physiological concentration in human milk

Compound	gp120 binding to iDCs [1, 7]	binding of gp120 beads to iDC [1]	binding of gp120 beads to Raji-DC-SIGN [2]	DC-SIGN mediated HIV-1 transfer [4]	interaction between DC-SIGN and gp120 [5]	other results
mannan	demonstrated inhibition	block binding of gp120 beads to the DC-SIGN expressing cells to the same extent as human milk	block binding of gp120 beads to the DC-SIGN expressing cells to the same extent as human milk			
human lysozyme: major human milk protein (Sigma) [reference compound]						DC-SIGN-Fc binding to coated milk compound [3, 8]: showed no binding; gp120 binding to iDCs [1, 8]: None of the tested human milk compounds could inhibit gp120 binding; gp120 binding to Raji-DC-SIGN [2, 8]: None of the tested human milk compounds could inhibit gp120 binding
Le^x-BSA: Lewis X-BSA, 14 atom spacer (Calbiochem)				able to inhibit DC-SIGN mediated HIV-1 transfer	none of the tested compounds were able to block the interaction	binding to DC-SIGN-Fc ([3]; Le^x-BSA or BSA control coated): demonstrates binding to DC-SIGN-Fc
lacto-N-fucopentaose III [LNFP III, reference compound]				not able to prevent HIV-1 transfer	none of the tested compounds were able to block the interaction	previously shown DC-SIGN binding [6]: bind DC-SIGN
O=C(O)CN(CCOCCOCCN(CC(=O)O)CC(=O)O)CC(=O)O [EGTA, reference compound]	demonstrated inhibition	block binding of gp120 beads to the DC-SIGN expressing cells to the same extent as human milk	block binding of gp120 beads to the DC-SIGN expressing cells to the same extent as human milk			DC-SIGN-Fc binding to human milk after pre-incubation of DC-SIGN-Fc ([3]; 50 μg/ml AZN-D1 or 10 mM EGTA, p<0.01): completely abrogated binding
